# Data taken from patent publication US20260325508A1, “COMBINATION OF PAC-1 AND CAR T-CELL TREATMENTS” (THE BOARD OF TRUSTEES OF THE UNIVERSITY OF ILLINOIS, priority 2023, published 2026).
# Test system: ID8Cosmc-KO
# Assay: Survival of ID8Cosmc-KO-bearing mice, PAC-1 and 237 CAR-T combinations
# Assay type: in vivo, mouse
# Conditions: single agent, PAC-1 100 mg/kg i.p. from day 40, three weeks 5 days ON, 2 days OFF; untreated 71 days; p<0.0001
# Protocol: FIG. 14A-B. PAC-1 enhanced efficacy of 237 CAR-T in late-stage ovarian cancer model. Survival curves of mice with established ID8Cosmc-KO tumors treated with a combination of PAC-1 and 237 CAR-T in comparison with their single-agent controls. (A) Mice with detectable tumors at day 40 post-tumor inoculation were administered with either PAC-1 (100 mg/kg) or vehicle intraperitoneally for three weeks at a “five days ON, 2 days OFF” treatment schedule. At day 60 post-tumor inoculation, mice were given either 237 CAR-T or mock T cells (5 million cells, >40% transduction efficiency) via i.p. injection. Cyclophosphamide (100 mg/kg, i.p.) were administered 24 hours prior to adoptive T cell transfer to deplete pre-existing lymphocytes. (B) Data were plotted with GraphPad Prism v10 using cumulative data across five independent experiments, with the indicated total n for each treatment arm. Median survival times are indicated; P-values were calculated using the Log-rank (Mantel-Cox) test.
# FIG. 15A-B. PAC-1 at day 50 (or day 60) and 237 CAR-T at day 60 combination treatment. […] Median survival times are indicated; P-values were calculated using the Log-rank (Mantel-Cox) test. […]
# FIG. 16A-B. 237 CAR-T at day 60 and PAC-1 at day 77 combination treatment. […] Median survival times are indicated; P-values were calculated using the Log-rank (Mantel-Cox) test. […]
smiles,measurement,value
C=CCc1cccc(/C=N/NC(=O)CN2CCN(Cc3ccccc3)CC2)c1O [PAC-1],median survival,90 days
